{
  "source": "patent US12678458B2",
  "about": "“Antiseptic composition” (BOBS SILVER, priority 2020, dated 2026)",
  "key": {"[1]": {"test_system": "Esherichia coli ATCC-8739 (NBIMCC 3397)", "test": "Agar diffusion test, inhibitory zones", "format": "cell-based, Escherichia coli", "conditions": "E. coli; 0.1 ml in 9 mm wells"}, "[2]": {"test_system": "Salmonella enterica subsp. enterica ATCC 1304 (NBIMCC 8691)", "test": "Agar diffusion test, inhibitory zones", "format": "cell-based", "conditions": "S. enterica; 0.1 ml in 9 mm wells"}, "[3]": {"test_system": "Pseudomonas aeruginosa", "test": "Agar diffusion test, inhibitory zones", "format": "cell-based", "conditions": "P. aeruginosa; 0.1 ml in 9 mm wells"}, "[4]": {"test_system": "Staphylococcus aureus subsp. aureus ATCC-6538 (NBIMCC 3359)", "test": "Agar diffusion test, inhibitory zones", "format": "cell-based", "conditions": "S. aureus; 0.1 ml in 9 mm wells"}, "[5]": {"test_system": "Streptococcus pyogenes", "test": "Agar diffusion test, inhibitory zones", "format": "cell-based", "conditions": "S. pyogenes; 0.1 ml in 9 mm wells"}, "[6]": {"test_system": "Clostridium perfringens ATCC 13124 (NBIMCC 8615)", "format": "cell-based", "conditions": "C. perfringens; 0.1 ml in 9 mm wells"}, "[7]": {"test_system": "Candida albicans ATCC 10231 (NBIMCC 74)", "test": "Agar diffusion test, inhibitory zones", "format": "cell-based", "conditions": "C. albicans; 0.1 ml in 9 mm wells"}, "[8]": {"test_system": "Total Gram-negative", "test": "Agar diffusion test, inhibitory zones", "format": "cell-based"}, "[9]": {"test_system": "Total Gram-positive bacteria", "format": "cell-based"}, "[10]": {"test_system": "Total bacteria", "test": "Agar diffusion test, inhibitory zones", "format": "cell-based"}, "[11]": {"test_system": "Total (all microorganisms)", "test": "Agar diffusion test, inhibitory zones", "format": "cell-based"}, "[12]": {"test_system": "Esherichia coli", "test": "Minimum inhibitory concentrations, two-fold serial dilution in agar", "format": "cell-based, Escherichia coli", "conditions": "E. coli"}, "[13]": {"test_system": "Salmonella enterica", "test": "microbe, parasite or virus in culture", "format": "cell-based"}, "[14]": {"test_system": "Pseudomonas aeruginosa", "test": "Minimum inhibitory concentrations, two-fold serial dilution in agar", "format": "cell-based", "conditions": "P. aeruginosa"}, "[15]": {"test_system": "Staphylococcus aureus", "test": "Minimum inhibitory concentrations, two-fold serial dilution in agar", "format": "cell-based", "conditions": "S. aureus"}, "[16]": {"test_system": "Streptococcus pyogenes", "test": "Minimum inhibitory concentrations, two-fold serial dilution in agar", "format": "cell-based", "conditions": "S. pyogenes"}, "[17]": {"test_system": "Clostridium perfringens", "test": "microbe, parasite or virus in culture", "format": "cell-based"}, "[18]": {"test_system": "Candida albicans", "test": "Minimum inhibitory concentrations, two-fold serial dilution in agar", "format": "cell-based", "conditions": "C. albicans"}, "[19]": {"test_system": "Total Gram-negative", "test": "organism not typed", "format": "cell-based"}, "[20]": {"test_system": "Total Gram-positive", "test": "organism not typed", "format": "cell-based"}, "[21]": {"test_system": "Total bacteria", "test": "Minimum inhibitory concentrations, two-fold serial dilution in agar", "format": "cell-based"}, "[22]": {"test_system": "Total (all microorganisms)", "test": "Minimum inhibitory concentrations, two-fold serial dilution in agar", "format": "cell-based"}, "[23]": {"test_system": "HRV-A16", "conditions": "well-known antiviral compound; cited from earlier work"}},
  "data": [
    {"compound": "CS(=O)(=O)c1ccc([C@@H](O)[C@@H](CO)NC(=O)C(Cl)Cl)cc1", "note": "[Thiamphenicol, thiamphenicol]", "values": [
      {"measurement": "Inhibitory zones in mm", "setting": "[1]", "result": "36.0 ± 0.8", "unit": "mm"},
      {"measurement": "Inhibitory zones in mm", "setting": "[2]", "result": "35.3 ± 0.8", "unit": "mm"},
      {"measurement": "Inhibitory zones in mm", "setting": "[3]", "result": "34.8 ± 0.8", "unit": "mm"},
      {"measurement": "Inhibitory zones in mm", "setting": "[4]", "result": "25.7 ± 3.3", "unit": "mm"},
      {"measurement": "Inhibitory zones in mm", "setting": "[5]", "result": "26.0 ± 4.5", "unit": "mm"},
      {"measurement": "Inhibitory zones in mm", "setting": "[6]", "result": "21.3 ± 0.5", "unit": "mm"},
      {"measurement": "Inhibitory zones in mm", "setting": "[7]", "result": "28.7 ± 3.7", "unit": "mm"},
      {"measurement": "Inhibitory zones in mm", "setting": "[8]", "result": "35.4 ± 0.5", "unit": "mm"},
      {"measurement": "Inhibitory zones in mm", "setting": "[9]", "result": "24.3 ± 2.1", "unit": "mm"},
      {"measurement": "Inhibitory zones in mm", "setting": "[10]", "result": "29.9 ± 5.7", "unit": "mm"},
      {"measurement": "Inhibitory zones in mm", "setting": "[11]", "result": "29.7 ± 5.3", "unit": "mm"},
      {"measurement": "Th D", "setting": "[12]", "result": 64, "unit": "µg/mL"},
      {"measurement": "MIC50", "setting": "[12]; Escherichia coli, read-out: Th MIC50", "result": 8, "unit": "µg/mL"},
      {"measurement": "Th D", "setting": "[13]; S. enterica", "result": 64, "unit": "µg/mL"},
      {"measurement": "MIC50", "setting": "[13]; Salmonella enterica, read-out: Th MIC50", "result": 16, "unit": "µg/mL"},
      {"measurement": "Th D", "setting": "[14]", "result": 64, "unit": "µg/mL"},
      {"measurement": "MIC50", "setting": "[14]; Pseudomonas aeruginosa, read-out: Th MIC50", "result": 8, "unit": "µg/mL"},
      {"measurement": "Th D", "setting": "[15]", "result": 64, "unit": "µg/mL"},
      {"measurement": "MIC50", "setting": "[15]; Staphylococcus aureus, read-out: Th MIC50", "result": 16, "unit": "µg/mL"},
      {"measurement": "Th D", "setting": "[16]", "result": 128, "unit": "µg/mL"},
      {"measurement": "MIC50", "setting": "[16]; Streptococcus pyogenes, read-out: Th MIC50", "result": 32, "unit": "µg/mL"},
      {"measurement": "Th D", "setting": "[17]; C. perfringens", "result": 16, "unit": "µg/mL"},
      {"measurement": "MIC50", "setting": "[17]; Clostridium perfringens, read-out: Th MIC50", "result": 4, "unit": "µg/mL"},
      {"measurement": "Th D", "setting": "[18]", "result": 128, "unit": "µg/mL"},
      {"measurement": "MIC50", "setting": "[18]; Candida albicans, read-out: Th MIC50", "result": 32, "unit": "µg/mL"},
      {"measurement": "Th D", "setting": "[19]", "result": 64.00, "unit": "µg/mL"},
      {"measurement": "MIC50", "setting": "[19]; read-out: Th MIC50", "result": 10.7, "unit": "µg/mL"},
      {"measurement": "Th D", "setting": "[20]", "result": 42.00, "unit": "µg/mL"},
      {"measurement": "MIC50", "setting": "[20]; read-out: Th MIC50", "result": 21, "unit": "µg/mL"},
      {"measurement": "Th D", "setting": "[21]", "result": 66.7, "unit": "µg/mL"},
      {"measurement": "MIC50", "setting": "[21]; Total bacteria, read-out: Th MIC50", "result": 14, "unit": "µg/mL"},
      {"measurement": "Th D", "setting": "[22]", "result": 84.00, "unit": "µg/mL"},
      {"measurement": "MIC50", "setting": "[22]; Total (all microorganisms), read-out: Th MIC50", "result": 16.6, "unit": "µg/mL"}
    ]},
    {"compound": "CCOC(=O)/C=C/[C@H](C[C@@H]1CCNC1=O)NC(=O)[C@@H](CC(=O)[C@@H](NC(=O)c1cc(C)on1)C(C)C)Cc1ccc(F)cc1", "note": "[rupintrivir]", "values": [
      {"measurement": "antiviral response", "setting": "[23]", "result": "almost complete response"}
    ]}
  ]
}
